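How tested: cells in 96-well plates exposed to compound for 48 hours at five concentrations. Here, GI50 denotes the concentration required for 50% inhibition of growth.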 The source made the active and inactive calls. No stated cut-off is given here; in the data, active = GI50 up to about 1.1 µM and inactive = higher.
Legend:
Assay in all cases: growth of human tumour cells (NCI), 48 h
HL-60 = test system: HL-60
NCI-H23 = test system: NCI-H23
HOP-62 = test system: HOP-62
A549 = test system: A549
HOP-92 = test system: HOP-92
COLO 205 = test system: COLO 205
EKVX = test system: EKVX
NCI-H460 = test system: NCI-H460
SN12C = test system: SN12C
KM12 = test system: KM12
UACC-257 = test system: UACC-257
CAKI-1 = test system: CAKI-1
HOP-18 = test system: HOP-18
OVCAR-4 = test system: OVCAR-4
K562 = test system: K562
LOX IMVI = test system: LOX IMVI
SW-620 = test system: SW-620
ACHN = test system: ACHN
Malme-3M = test system: Malme-3M
NCI/ADR-RES = test system: NCI/ADR-RES

Measured: GI50

CNc1ccc(/C=C2\C=Cc3ccccc32)cc1
inactive: HL-60 4.45 µM | NCI-H23 16.7 µM | HOP-62 18.9 µM | A549 24 µM | HOP-92 19.1 µM | COLO 205 18.4 µM | EKVX 20.1 µM | NCI-H460 16.6 µM | SN12C 29.9 µM | KM12 12.7 µM | UACC-257 23.4 µM | CAKI-1 30.1 µM | HOP-18 16.4 µM | OVCAR-4 26.8 µM | K562 32 µM | LOX IMVI 11.5 µM | SW-620 33.1 µM | ACHN 20.3 µM

NNC(=S)N/N=C(\c1nc2ccc(Cl)cc2nc1O)C(O)c1cccc([N+](=O)[O-])c1 (configuration not stated)
inactive: HL-60 > 52.2 µM | NCI-H23 > 42.8 µM | HOP-62 > 38.9 µM | Malme-3M > 100 µM | A549 > 100 µM | HOP-92 > 86.3 µM | COLO 205 > 42.7 µM | EKVX > 100 µM | NCI-H460 > 75 µM | SN12C 72.3 µM | KM12 > 100 µM | UACC-257 > 100 µM | CAKI-1 > 74.1 µM | HOP-18 > 100 µM | OVCAR-4 > 72.1 µM | K562 > 45.3 µM | LOX IMVI > 40.5 µM | SW-620 20.9 µM | ACHN > 100 µM

N#CCC(=O)N/N=C(\C(=O)Nc1ccc(Cl)c(Cl)c1)C1CN(c2ccccc2)N=C1N (configuration not stated)
inactive: HL-60 > 100 µM | NCI-H23 > 100 µM | HOP-62 > 100 µM | Malme-3M > 100 µM | A549 > 100 µM | HOP-92 > 100 µM | COLO 205 > 100 µM | EKVX > 100 µM | NCI-H460 > 100 µM | SN12C > 100 µM | KM12 > 100 µM | UACC-257 > 100 µM | HOP-18 > 100 µM | OVCAR-4 > 100 µM | K562 > 100 µM | LOX IMVI > 100 µM | ACHN > 100 µM

Cc1cc(=O)oc2c(C)c(OCCCOc3ccc4c(C)cc(=O)oc4c3C)ccc12
inactive: HL-60 > 100 µM | NCI-H23 > 100 µM | HOP-62 > 100 µM | Malme-3M > 100 µM | A549 > 100 µM | HOP-92 65.9 µM | EKVX > 100 µM | NCI-H460 > 100 µM | KM12 > 100 µM | UACC-257 > 100 µM | CAKI-1 > 100 µM | HOP-18 > 100 µM | K562 > 100 µM | LOX IMVI > 100 µM | SW-620 > 100 µM

Cc1ccccc1NC(=O)C(=O)C(C#N)c1ccccc1C (configuration not stated)
inactive: HL-60 53.3 µM | NCI-H23 > 100 µM | HOP-62 > 100 µM | Malme-3M > 100 µM | A549 > 100 µM | HOP-92 > 100 µM | COLO 205 46.8 µM | EKVX > 100 µM | NCI-H460 38.2 µM | SN12C > 100 µM | KM12 > 100 µM | UACC-257 > 100 µM | CAKI-1 > 100 µM | HOP-18 > 100 µM | K562 21.9 µM | LOX IMVI 22.5 µM | SW-620 19.5 µM | ACHN > 100 µM

Cc1c2c(cc3c(=O)ccn(CCN(C)C)c13)c(=O)ccn2CCN(C)C
inactive: HL-60 2.24 µM | NCI-H23 14.9 µM | HOP-62 6.62 µM | Malme-3M 27.4 µM | A549 13.7 µM | HOP-92 6.1 µM | COLO 205 11.5 µM | EKVX 13 µM | NCI-H460 3.69 µM | SN12C 11.2 µM | KM12 3.08 µM | UACC-257 18.3 µM | CAKI-1 16.6 µM | HOP-18 15.7 µM | OVCAR-4 4.4 µM | K562 17.8 µM | LOX IMVI 10.3 µM | SW-620 3.81 µM | ACHN 5.4 µM

FC(F)(F)C1(Br)C(c2ccccc2)=C1c1ccccc1
inactive: HL-60 7.28 µM | NCI-H23 16.6 µM | HOP-62 18.5 µM | Malme-3M 15.8 µM | A549 17.7 µM | HOP-92 16.7 µM | COLO 205 18.8 µM | EKVX 32.2 µM | NCI-H460 24.7 µM | SN12C 14 µM | KM12 15.8 µM | UACC-257 18.5 µM | CAKI-1 23.8 µM | HOP-18 16.5 µM | OVCAR-4 18.8 µM | K562 7.14 µM | LOX IMVI 12.9 µM | SW-620 16.5 µM | ACHN 16.8 µM

CC(=O)Nc1ccc(C2C(C(=O)Nc3ccccc3)=C(C)NC(C)=C2C(=O)Nc2ccccc2)cc1
inactive: HL-60 39.8 µM | NCI-H23 > 100 µM | HOP-62 > 100 µM | Malme-3M > 100 µM | A549 > 100 µM | HOP-92 > 100 µM | COLO 205 > 100 µM | EKVX > 100 µM | NCI-H460 > 100 µM | SN12C > 100 µM | KM12 > 100 µM | UACC-257 > 100 µM | CAKI-1 > 100 µM | HOP-18 > 100 µM | OVCAR-4 > 100 µM | K562 > 100 µM | LOX IMVI > 79.6 µM | SW-620 98.4 µM | ACHN > 100 µM

O=C1C2C(C(=O)N1c1ccccc1)C1c3ccccc3C2C2C(=O)N(c3ccccc3)C(=O)C21 (configuration not stated)
inactive: HL-60 2.9 µM | NCI-H23 18.5 µM | Malme-3M 3.9 µM | A549 5.86 µM | HOP-92 6.82 µM | COLO 205 3.89 µM | EKVX > 100 µM | NCI-H460 3.71 µM | SN12C 5.48 µM | KM12 6.1 µM | UACC-257 > 100 µM | CAKI-1 11.3 µM | HOP-18 > 100 µM | OVCAR-4 22.8 µM | K562 3.42 µM | LOX IMVI 10.5 µM | SW-620 6.12 µM | ACHN 6.47 µM

CC(C)(C)OC(=O)C1=C(O)C(C(=O)OC(C)(C)C)C23CCCCC12C(C(=O)OC(C)(C)C)C(O)=C3C(=O)OC(C)(C)C (configuration not stated)
inactive: HL-60 > 100 µM | NCI-H23 > 100 µM | HOP-62 > 100 µM | Malme-3M > 100 µM | A549 > 100 µM | HOP-92 > 100 µM | COLO 205 > 100 µM | EKVX > 100 µM | NCI-H460 > 100 µM | SN12C > 100 µM | KM12 > 100 µM | UACC-257 > 100 µM | CAKI-1 > 100 µM | HOP-18 > 100 µM | OVCAR-4 > 100 µM | K562 > 100 µM | LOX IMVI > 100 µM | SW-620 > 100 µM | ACHN > 100 µM

Cc1ccc(S(=O)(=O)N2CCSCCSCCN(S(=O)(=O)c3ccc(C)cc3)CCN(S(=O)(=O)c3ccc(C)cc3)CC2)cc1
inactive: HL-60 > 100 µM | NCI-H23 > 100 µM | HOP-62 > 100 µM | Malme-3M > 100 µM | A549 > 100 µM | HOP-92 > 100 µM | NCI/ADR-RES > 100 µM | COLO 205 > 100 µM | EKVX > 100 µM | NCI-H460 > 100 µM | SN12C > 100 µM | KM12 > 100 µM | UACC-257 > 100 µM | CAKI-1 > 100 µM | OVCAR-4 > 100 µM | K562 > 100 µM | LOX IMVI > 100 µM | SW-620 > 100 µM | ACHN > 100 µM

COC(=O)c1oc([N+](=O)[O-])c(-c2ccccc2)c1-c1ccccc1
inactive: NCI-H23 > 100 µM | HOP-62 > 100 µM | Malme-3M > 100 µM | A549 > 100 µM | HOP-92 > 100 µM | COLO 205 37.7 µM | EKVX > 100 µM | NCI-H460 > 100 µM | SN12C > 100 µM | KM12 > 100 µM | UACC-257 > 100 µM | CAKI-1 > 100 µM | HOP-18 > 100 µM | OVCAR-4 > 100 µM | K562 > 100 µM | LOX IMVI 35.5 µM | SW-620 > 100 µM | ACHN > 100 µM

N#Cc1c(N)c(C(=O)O)nn(-c2cccc(C(F)(F)F)c2)c1=O
inactive: HL-60 > 100 µM | NCI-H23 > 100 µM | Malme-3M 60 µM | A549 > 100 µM | HOP-92 43.4 µM | COLO 205 > 100 µM | EKVX 33.6 µM | NCI-H460 > 100 µM | SN12C > 100 µM | KM12 > 100 µM | CAKI-1 > 100 µM | HOP-18 29.2 µM | K562 64.7 µM | LOX IMVI > 100 µM | SW-620 > 100 µM | ACHN > 100 µM

C=CCn1c2c(sc1=S)C(S)NC=N2 (configuration not stated)
inactive: HL-60 > 100 µM | NCI-H23 90.6 µM | HOP-62 39 µM | Malme-3M 10.4 µM | A549 69 µM | HOP-92 16.8 µM | COLO 205 > 100 µM | EKVX 49.5 µM | NCI-H460 > 100 µM | SN12C > 100 µM | KM12 > 100 µM | UACC-257 71 µM | CAKI-1 > 100 µM | HOP-18 18.9 µM | OVCAR-4 > 100 µM | K562 73.5 µM | LOX IMVI > 100 µM | SW-620 > 100 µM | ACHN 71.3 µM

C=C1C(=O)OC2/C=C(\C=O)CC/C=C(\C)C(O)C[C@@H]12 (some centres not stated)
inactive: HL-60 2.86 µM | NCI-H23 5.18 µM | HOP-62 28.1 µM | Malme-3M 5.07 µM | A549 16.1 µM | HOP-92 5.9 µM | COLO 205 3.94 µM | EKVX 15.6 µM | NCI-H460 13.3 µM | SN12C 7.52 µM | KM12 5.77 µM | UACC-257 5.93 µM | CAKI-1 > 10 µM | HOP-18 16.9 µM | OVCAR-4 14.1 µM | K562 3.33 µM | LOX IMVI 6.18 µM | SW-620 2.72 µM | ACHN 7.35 µM

From ChEMBL document CHEMBL1201862, “PubChem BioAssay data set” (2004)
